{
  "source": "patent US20070059799A1",
  "about": "(priority 1999, published 2007)",
  "key": {"A*0301": {"biological_target": "T1, A*0301 (Homo sapiens, UniProt P04439)", "T1 construct": "endogenous in cells; host or cells: GM3107", "assay": "Purified HLA class I peptide binding assay (HLA-A*03)"}, "A*1101": {"biological_target": "A*1101 (Homo sapiens, UniProt P04439, A114D/D185E/E176A/F33Y/L180Q/S129P/T187R)", "assay": "Purified HLA class I peptide binding assay (HLA-A*11)"}, "A*3101": {"biological_target": "A*3101 (Homo sapiens, UniProt P04439, A270S/D185E/E176V/E277Q/F33T/G231S/G80R/H175R/I121M/I218V/I322F/K168Q/L300P/L318F/M331R/P217A/Q94H/R138Q/T323A/T345S/T97I/V358M)", "assay": "Purified HLA class I peptide binding assay"}, "A*3301": {"biological_target": "A*3301 (Homo sapiens, UniProt P04439, A270S/D185E/E176V/E277Q/E87N/F33T/G231S/H175R/I121M/I218V/I322F/K168Q/K210R/L300P/L318F/M331R/P217A/Q86R/Q94H/R138Q/T323A/T345S/T97I/V358M/Y195H)", "assay": "biochemical", "type": "binding"}, "A*6801": {"biological_target": "A*6801 (Homo sapiens, UniProt P04439, A269V/D185E/E176V/E277Q/E87N/F33Y/G231S/I121M/I166T/I218V/L180W/L300P/L318F/N151K/P208A/P217A/Q86R/R169H/T345S)", "assay": "Purified HLA class I peptide binding assay"}, "DRB1*0301 (DR3)": {"biological_target": "T2, DRB1*0301 (DR3) (Homo sapiens, UniProt P01903+P01911, A100K/A102G/A103R/A169T/F55Y/I96L/K41T/L162R/M171V/P40S/Q125H/Q178H/Q39Y/R42S/S66N/T106N/T262R/W38E/Y61H)", "T2 construct": "endogenous in cells; host or cells: MAT", "assay": "Purified HLA class II peptide binding assay, pH 4.5"}, "A*0202": {"biological_target": "A*0202 (Homo sapiens, UniProt P04439, D140Y/D185E/D98H/E176V/E277Q/G131W/G231S/I119L/I121R/I166T/I218V/L180W/L300P/L318F/N151K/N90K/P208A/P217A/Q67R/Q86G/Q94H/R138H/R169H/T345S)", "assay": "Purified HLA class I peptide binding assay"}, "A*6802": {"biological_target": "A*6802 (Homo sapiens, UniProt P04439, A269V/D140Y/D185E/E176V/E277Q/E87N/F33Y/G231S/I121R/I166T/I218V/L180W/L300P/L318F/N151K/P208A/P217A/Q86R/R138H/R169H/S129P/T345S/V36M)", "assay": "Purified HLA class I peptide binding assay"}, "A2-supertype alleles": {"test_system": "A2-supertype alleles", "type": "binding, human", "settings": "number of supertype alleles bound; 3 or more considered degenerate"}, "DRB1*1302 (DR6w19)": {"biological_target": "T3, DRB1*1302 (DR6w19) (Homo sapiens, UniProt P01903+P01911, A100E/A169T/K41T/L162R/M171V/P40S/Q125H/Q178H/Q39Y/Q99D/R42S/S66N/T262R/V115G/W38E/Y61H)", "T3 construct": "endogenous in cells", "T3 sequence (P01903 26-254, other chains not shown)": "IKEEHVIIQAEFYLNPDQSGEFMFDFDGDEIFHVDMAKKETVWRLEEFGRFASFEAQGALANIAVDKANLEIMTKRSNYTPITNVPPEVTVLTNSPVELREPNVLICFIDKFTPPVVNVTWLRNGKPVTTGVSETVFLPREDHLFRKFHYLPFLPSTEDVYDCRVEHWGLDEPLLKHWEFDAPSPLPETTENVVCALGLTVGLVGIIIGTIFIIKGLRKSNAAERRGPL", "assay": "Purified HLA class II peptide binding assay"}},
  "note": "pIC50: −log10 of the molar value.",
  "data": [
    {"smiles": "CC[C@H](C)[C@H](NC(=O)[C@@H]1CCCN1C(=O)[C@H](CC(C)C)NC(=O)[C@@H](N)CC(C)C)C(=O)N[C@@H](Cc1ccccc1)C(=O)N[C@@H](Cc1ccccc1)C(=O)N[C@@H](CS)C(=O)N[C@@H](CC(C)C)C(=O)N[C@@H](Cc1c[nH]c2ccccc12)C(=O)N[C@H](C(=O)N[C@@H](Cc1ccc(O)cc1)C(=O)O)C(C)C", "note": "[Peptide 26.0549]", "values": [
      {"measurement": "pIC50", "setting": "A*0301", "value": 6.32},
      {"measurement": "pIC50", "setting": "A*1101", "value": 5.00},
      {"measurement": "pIC50", "setting": "A*3101", "value": 5.58},
      {"measurement": "pIC50", "setting": "A*3301", "value": 6.19},
      {"measurement": "pIC50", "setting": "A*6801", "value": 7.09}
    ]},
    {"smiles": "CC(C)C[C@H](NC(=O)[C@H](Cc1c[nH]c2ccccc12)NC(=O)[C@H](CO)NC(=O)[C@H](CC(C)C)NC(=O)[C@@H](N)CC(N)=O)C(=O)N[C@@H](CO)C(=O)N[C@@H](CC(C)C)C(=O)N[C@@H](CC(=O)O)C(=O)N[C@H](C(=O)N[C@@H](CO)C(=O)N[C@@H](C)C(=O)N[C@@H](C)C(=O)N[C@@H](Cc1ccccc1)C(=O)N[C@@H](Cc1ccc(O)cc1)C(=O)N[C@@H](Cc1c[nH]cn1)C(=O)O)C(C)C", "note": "[Peptide 1186.18]", "values": [
      {"measurement": "pIC50", "setting": "DRB1*0301 (DR3)", "value": 6.64}
    ]},
    {"smiles": "CC[C@H](C)[C@H](N)C(=O)N[C@@H](CC(C)C)C(=O)N[C@@H](CO)C(=O)N[C@H](C(=O)N[C@@H](CC(C)C)C(=O)N1CCC[C@H]1C(=O)N[C@@H](CCC(=O)O)C(=O)N[C@H](C(=O)N[C@H](C(=O)N[C@H](C(=O)O)C(C)C)[C@@H](C)O)[C@@H](C)O)[C@@H](C)O", "note": "[Peptide 1069.14]", "values": [
      {"measurement": "pIC50", "setting": "A*0202", "value": 6.30},
      {"measurement": "pIC50", "setting": "A*6802", "value": 5.22},
      {"measurement": "Alleles bound", "setting": "A2-supertype alleles", "value": 2}
    ]},
    {"smiles": "CC[C@H](C)[C@H](NC(=O)[C@H](Cc1c[nH]c2ccccc12)NC(=O)[C@@H](NC(=O)CN)C(C)C)C(=O)N[C@@H](CCCNC(=N)N)C(=O)N[C@H](C(=O)N1CCC[C@H]1C(=O)N1CCC[C@H]1C(=O)N[C@@H](C)C(=O)N[C@@H](Cc1ccc(O)cc1)C(=O)N[C@@H](CCCNC(=N)N)C(=O)N1CCC[C@H]1C(=O)N1CCC[C@H]1C(=O)N[C@@H](CC(N)=O)C(=O)N[C@@H](C)C(=O)O)[C@@H](C)O", "note": "[27.0280]", "values": [
      {"measurement": "pIC50", "setting": "DRB1*0301 (DR3)", "value": "< 4.70"},
      {"measurement": "pIC50", "setting": "DRB1*1302 (DR6w19)", "value": "< 4.70"}
    ]}
  ]
}
